How the values were obtained:
[1] = test system: rat embrional fibroblasts (REF); assay: Number of REF cells throughout 72-hr incubation; format: cell-based
Description: (§1) To this end, these substances had been incubated for 72 hours with cells of rat embrional fibroblasts (REF) and the same cells, transformed with adenoviral E1A gene in complementation with ras-oncogene (e-ras cell line). Subsequent evaluation of the cellularity of experimental samples was carried out by counting the quantity of cell per milliliter (for REF cell line) or clones in dish (for e-ras cell line).
(§2) Cells were cultivated on DMEM medium supplemented with 10% fetal calf serum and […] gentamicin. Cultivation was carried out in Petri dishes.
(§3) REF cells was cultivated with initial density of 800 000 cell per mL, evaluation of the cellularity was performed at 0, 24, 48 and 72 hours of incubation with the test articles.
(§4) For the test-system for estimation of apoptosis regulation UV-induced cell death was triggered in a dose of 4 Dj. Test articles were added immediately after irradiation. Then, the quantity of cell per milliliter (for REF cell line) or clones in dish (for e-ras cell line) were monitored every 24 hours. For determination of DNA-fragmentation the electrophoresis in agarose gel was used at standard settings.

[2] = test system: e-ras cell line (REF transformed with E1A and ras-oncogene); assay: Number of clones of e-ras cells throughout 72-hr incubation; format: cell-based, rat
Description: as §1, §2
(§5) E-ras cells were seeded at a cell density of 300 cells per 5 cm dish. 7 days after growth of e-ras cells had been started the quantity of clones was evaluated and the test articles were added into the dishes.
as §4

[3] = test system: rat embrional fibroblasts (REF) after UV-irradiation; assay: Number of REF cells after UV-irradiation; format: cell-based
Description: as §1, §2, §3, §4

[4] = test system: e-ras cells after UV-irradiation; assay: Number of clones of e-ras cells after UV-irradiation; format: cell-based, rat
Description: as §1, §2, §5, §4

[5] = test system: leukemia P388 cells; assay: Leukemia P388 in mice: ascitic fluid and survival (Example 14); conditions: for Accumulation of ascitic (weight gain, %): leukemia P388; for Mean survival time: mice inoculated with leukemia P388 cells
Description: (§6) An influence of 7 day course of test article daily administration was studied in respect of tumor progression, which was estimated using the two integral indices: pace of mouse weight gain due to accumulation of ascitic fluid, and by animal mean survival time after inoculation.
(§7) The study was carried out on DBA/2 mice weighing 18-21 g. First, tumor cell passage was performed using 6 animals for each cell line. For this, cells kept at the temperature of the liquid nitrogen were de-frozen and adjusted to the concentration of 5×10^6 cells/mL by sterile Hanks' solution. Then, 6 mice were intra peritoneally inoculated with 0.2 mL of each line cellular suspension.
(§8) Ascitic fluid was collected 6 days after the inoculation with L1210 cells, 8 days after the inoculation with P388 ones and 18 days after inoculation with Erlich adenocarcinoma cells. Thus obtained, the samples of passaged tumor cells were used for the main experiments. The fluid liquid was dissolved by sterile Hanks' solution so that cell concentration be 5×10^6 cells/mL for P388 cells and Erlich adenocarcinoma cells, 5×10^5 cells/mL for L1210 cells.
(§9) Eleven groups of animals with no less than 15 mice each were formed for experiments with either tumor cell line. Mice were inoculated with 0.2 mL of resultant cell suspensions per mouse (10^6 P388 and Erlich adenocarcinoma cells/mouse, and 10^5 L1210 cells/mouse). 24 hours after the tumor cells inoculation, animals were given the first injections of the test articles or vehicles. The test article injections were made daily till the 14th day of the experiment or till the animal death. The volume of solutions injected comprised 0.01 mL/g body weight.
(§10) #1—intact animals receiving imitation of tumor cell inoculation (injection of normal saline) which further were treated with normal saline throughout the entire experiment;
(§11) #2—control animals, inoculated with tumor cells, which further were treated with test article vehicle (normal saline);

[6] = test system: leukemia L1210 cells; assay: Leukemia L1210 in mice: ascitic fluid and survival (Example 14); conditions: for Accumulation of ascitic (weight gain, %): leukemia L1210
Description: as §6, §7, §8, §9, §10, §11

[7] = test system: Erlich adenocarcinoma cells; assay: Erlich adenocarcinoma in mice: ascitic fluid and survival (Example 14); conditions: for Accumulation of ascitic (weight gain, %): Erlich adenocarcinoma
Description: as §6, §7, §8, §9, §10, §11

C[S+](C)[O-] [7% DMSO]
number of REF cells (M ± m) ([1]; 0 hours of incubation): 801 ± 12 × 10^3 cells
number of REF cells (M ± m) ([1]; 24 hours of incubation): 1420 ± 17 × 10^3 cells
number of REF cells (M ± m) ([1]; 48 hours of incubation): 2651 ± 36 × 10^3 cells
number of REF cells (M ± m) ([1]; 72 hours of incubation): 5298 ± 39 × 10^3 cells
number of clones of e-ras cells (M ± m) ([2]; 0 hours of incubation): 268 ± 11
number of clones of e-ras cells (M ± m) ([2]; 24 hours of incubation): 271 ± 2
number of clones of e-ras cells (M ± m) ([2]; 48 hours of incubation): 268 ± 8
number of clones of e-ras cells (M ± m) ([2]; 72 hours of incubation): 243 ± 6
number of REF cells after UV-irradiation (M ± m) ([3]; 0 hours): 801 ± 12 × 10^3 cells
number of REF cells after UV-irradiation (M ± m) ([3]; 24 hours): 420 ± 17 × 10^3 cells
number of REF cells after UV-irradiation (M ± m) ([3]; 48 hours): 251 ± 36 × 10^3 cells
number of REF cells after UV-irradiation (M ± m) ([3]; 72 hours): 208 ± 39 × 10^3 cells
number of clones of e-ras cells after UV-irradiation (M ± m) ([4]; 0 hours): 268 ± 11
number of clones of e-ras cells after UV-irradiation (M ± m) ([4]; 24 hours): 171 ± 2
number of clones of e-ras cells after UV-irradiation (M ± m) ([4]; 48 hours): 108 ± 8
number of clones of e-ras cells after UV-irradiation (M ± m) ([4]; 72 hours): 103 ± 6
Accumulation of ascitic (weight gain, %) ([5]; number of injection 0): 0.5 ± 0.1%
Accumulation of ascitic (weight gain, %) ([5]; number of injection 3): 5.4 ± 1.4%
Accumulation of ascitic (weight gain, %) ([5]; number of injection 7): 19.6 ± 1.6%
Mean survival time [5]: 20.6 ± 1.8
Accumulation of ascitic (weight gain, %) ([6]; number of injection 0): 0.51 ± 0.1%
Accumulation of ascitic (weight gain, %) ([6]; number of injection 3): 6.4 ± 1.4%
Accumulation of ascitic (weight gain, %) ([6]; number of injection 7): 23.6 ± 2.6%
Mean survival time ([6]; mice inoculated with leukemia L1210 cells): 10.2 ± 0.8
Accumulation of ascitic (weight gain, %) ([7]; number of injection 0): 0.5 ± 0.2%
Accumulation of ascitic (weight gain, %) ([7]; number of injection 3): 11.4 ± 1.1%
Accumulation of ascitic (weight gain, %) ([7]; number of injection 7): 24.6 ± 2.2%
Mean survival time ([7]; mice inoculated with Erlich adenocarcinoma cells): 10.3 ± 1.8

NCCSSCCNC(=O)CNC(=O)C(CSSCC(NC(=O)CCC(N)C(=O)O)C(=O)NCC(=O)O)NC(=O)CCC(N)C(=O)O (centres unmarked) [S-thioeethylamine-GSSG + normal saline]
Accumulation of ascitic (weight gain, %) ([5]; number of injection 0): 0.7 ± 0.2%
Accumulation of ascitic (weight gain, %) ([5]; number of injection 3): 2.1 ± 0.4%
Accumulation of ascitic (weight gain, %) ([5]; number of injection 7): 8.2 ± 1.2%
Mean survival time [5]: 28.2 ± 0.8

From US6492329B1, “Cytokine and hemopoietic factor endogenous production enhancer and methods of use thereof” (Novelos Therapeutics, Inc., priority 1995, dated 2002)
